Measured values: PubChem BioAssay (NCI)
Where “and” joins values, the source holds several entries; their conditions need not be identical. Equal values may be shown once.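 Test compounds were applied to cells in 96-well plates for 48 hours at 5 doses. At the GI50, growth is halved. TGI: total growth inhibition.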

System: EKVX NSCLC
Assay: NCI tumour cell line growth inhibition, 48 h

Structure (SMILES)	GI50 [µM]	TGI
CN(C)c1ccc(/C=C\C2=[N+](C)c3ccccc3C2(C)C)cc1	1.29	> 100 µM
Nc1nc(-n2c(-c3ccccc3)nc3c(Br)cc(Br)cc3c2=O)nnc1-c1cccc(Cl)c1Cl	20.2	> 100 µM
C[N+](C)(C)CC(=O)N/N=C(/CC(=O)CC(C1=C(O)c2ccccc2OC1)c1ccccc1)C(=O)Nc1cccc(Cl)c1 (stereo not given)		> 100 µM
O=C1/C(=C/c2ccc(O)c(O)c2)CCC/C1=C\c1ccc(O)c(O)c1		32.4 µM
COC(=O)/C=C1\S/C(=N\NC(=O)c2cc3ccc2/C=C\c2ccc(cc2)/C=C\3)N(c2ccccc2)C1=O	1.91	4.23 µM
COC([CH2][Hg][n]1cnc2c1c(=O)n(C)c(=O)n2C)CN1C(=O)c2ccccc2S1(=O)=O (stereo not given)	> 100	> 100 µM
COc1ccc(CC2c3cc4c(cc3CCN2C)OCO4)c(C=O)c1OC (stereo not given)		> 100 µM
C=C(C)C(OC)C(O)CC1(C)CC(O)CC(C)(C2CCC3OC(C4(C)CCC(Br)C(C)(C)O4)CCC3(C)O2)O1 (stereo not given)	14.1	34.1 µM
Cc1cc(-c2nc(C(=O)Nc3cc4oc(N5CCOCC5)nc4nc3N3CC[C@@H](O)C3)co2)ccn1	> 100	> 100 µM
COc1cc2c(cc1OCCCCN1CCN(CC(=O)Nc3ccc(Cl)cc3C(=O)c3ccccc3Cl)CC1)N=CC1CCCN1C2=O (stereo not given)	0.375	1.07 µM
Cc1ccc(Cl)c2c(N=Nc3ccccc3[N+](=O)[O-])c(O)[nH]c12		> 100 µM
C=CCOc1ccc2c(C)cc(=O)oc2c1C		> 100 µM
C[C@@H](Oc1cc(-n2cnc3ccc(CN4CCN(C)CC4)cc32)sc1C(N)=O)c1ccccc1C(F)(F)F		21.6 µM and > 10 µM
CCOC1Oc2ccccc2C(=O)/C1=C/Nc1ccc(C(C)=O)cc1 (stereo not given)	25.4	93.6 µM
CCN1CCN(Cc2ccc(NC(=O)c3cccc(C#Cc4cccc5[nH]nc(N)c45)c3)cc2C(F)(F)F)CC1	1.41	2.73 µM
CC(C)=CCC\C(C)=C/C=C/C(C)=C\C=C\C(C)=C/C=C/C=C(C)\C=C\C=C(C)/C=C/C=C(/C)CCC=C(C)C		> 100 µM
CCN(CC)N=Nc1c(C(N)=O)n[nH]c1C		> 100 µM
CCOC(=O)Cn1c(C(F)(F)F)nc2nc(Cl)c(Cl)nc21		29.4 µM
COC1/C=C/OC2(C)Oc3c(C)c(O)c4c(O)c(c(/C=N/Nc5ccc([N+](=O)[O-])cc5[N+](=O)[O-])c(O)c4c3C2=O)NC(=O)C(C)=C/C=C/C(C)C(O)C(C)C(O)C(C)C(OC(C)=O)C1C (stereo not given)	4.75	> 50 µM

System: HCC-2998 colon
Assay: NCI tumour cell line growth inhibition, 48 h

Structure (SMILES)	GI50	TGI [µM]
CN(C)c1ccc(/C=C\C2=[N+](C)c3ccccc3C2(C)C)cc1	1.22 µM	12.9
Nc1nc(-n2c(-c3ccccc3)nc3c(Br)cc(Br)cc3c2=O)nnc1-c1cccc(Cl)c1Cl	3.42 µM	15.5
C[N+](C)(C)CC(=O)N/N=C(/CC(=O)CC(C1=C(O)c2ccccc2OC1)c1ccccc1)C(=O)Nc1cccc(Cl)c1 (stereo not given)		> 100
O=C1/C(=C/c2ccc(O)c(O)c2)CCC/C1=C\c1ccc(O)c(O)c1		11.5
COC(=O)/C=C1\S/C(=N\NC(=O)c2cc3ccc2/C=C\c2ccc(cc2)/C=C\3)N(c2ccccc2)C1=O	1.78 µM	3.45
COC([CH2][Hg][n]1cnc2c1c(=O)n(C)c(=O)n2C)CN1C(=O)c2ccccc2S1(=O)=O (stereo not given)	> 100 µM	> 100
COc1ccc(CC2c3cc4c(cc3CCN2C)OCO4)c(C=O)c1OC (stereo not given)		> 100
C=C(C)C(OC)C(O)CC1(C)CC(O)CC(C)(C2CCC3OC(C4(C)CCC(Br)C(C)(C)O4)CCC3(C)O2)O1 (stereo not given)	14.8 µM	30.1
Cc1cc(-c2nc(C(=O)Nc3cc4oc(N5CCOCC5)nc4nc3N3CC[C@@H](O)C3)co2)ccn1	55 µM	> 100
COc1cc2c(cc1OCCCCN1CCN(CC(=O)Nc3ccc(Cl)cc3C(=O)c3ccccc3Cl)CC1)N=CC1CCCN1C2=O (stereo not given)	0.194 µM	0.343
Cc1ccc(Cl)c2c(N=Nc3ccccc3[N+](=O)[O-])c(O)[nH]c12		> 100
C=CCOc1ccc2c(C)cc(=O)oc2c1C		> 100
Nc1c(C(=O)c2cccc(CCS(N)(=O)=O)c2)cnn1-c1ccc(F)cc1	> 25 µM	> 25
OCc1cc2ccccc2c2c3c(ccc12)OCO3	37.8 µM	232
C[C@@H](Oc1cc(-n2cnc3ccc(CN4CCN(C)CC4)cc32)sc1C(N)=O)c1ccccc1C(F)(F)F	< 0.0161 µM and 0.0397 µM	
CCOC1Oc2ccccc2C(=O)/C1=C/Nc1ccc(C(C)=O)cc1 (stereo not given)	15.9 µM	35.4
CC(C)=CCC\C(C)=C/C=C/C(C)=C\C=C\C(C)=C/C=C/C=C(C)\C=C\C=C(C)/C=C/C=C(/C)CCC=C(C)C		> 100
CCN(CC)N=Nc1c(C(N)=O)n[nH]c1C		> 100
O=C1NC(=NCCc2cccc(F)c2)S/C1=C\c1ccc2ncccc2c1	> 25 µM	> 25
COC1/C=C/OC2(C)Oc3c(C)c(O)c4c(O)c(c(/C=N/Nc5ccc([N+](=O)[O-])cc5[N+](=O)[O-])c(O)c4c3C2=O)NC(=O)C(C)=C/C=C/C(C)C(O)C(C)C(O)C(C)C(OC(C)=O)C1C (stereo not given)	5.05 µM	11.6

System: SNB-75 CNS
Assay: NCI tumour cell line growth inhibition, 48 h

Structure (SMILES)	GI50 [µM]	TGI [µM]
CN(C)c1ccc(/C=C\C2=[N+](C)c3ccccc3C2(C)C)cc1	0.709	19.9
Nc1nc(-n2c(-c3ccccc3)nc3c(Br)cc(Br)cc3c2=O)nnc1-c1cccc(Cl)c1Cl	8.65	46.7
C[N+](C)(C)CC(=O)N/N=C(/CC(=O)CC(C1=C(O)c2ccccc2OC1)c1ccccc1)C(=O)Nc1cccc(Cl)c1 (stereo not given)		> 100
O=C1/C(=C/c2ccc(O)c(O)c2)CCC/C1=C\c1ccc(O)c(O)c1		12.9
COC(=O)/C=C1\S/C(=N\NC(=O)c2cc3ccc2/C=C\c2ccc(cc2)/C=C\3)N(c2ccccc2)C1=O	5.44	> 100
COC([CH2][Hg][n]1cnc2c1c(=O)n(C)c(=O)n2C)CN1C(=O)c2ccccc2S1(=O)=O (stereo not given)	> 100	> 100
COc1ccc(CC2c3cc4c(cc3CCN2C)OCO4)c(C=O)c1OC (stereo not given)		> 100
C=C(C)C(OC)C(O)CC1(C)CC(O)CC(C)(C2CCC3OC(C4(C)CCC(Br)C(C)(C)O4)CCC3(C)O2)O1 (stereo not given)	27.4	> 61.5
Cc1cc(-c2nc(C(=O)Nc3cc4oc(N5CCOCC5)nc4nc3N3CC[C@@H](O)C3)co2)ccn1	9.41	69.2
COc1cc2c(cc1OCCCCN1CCN(CC(=O)Nc3ccc(Cl)cc3C(=O)c3ccccc3Cl)CC1)N=CC1CCCN1C2=O (stereo not given)	0.223	0.572
Cc1ccc(Cl)c2c(N=Nc3ccccc3[N+](=O)[O-])c(O)[nH]c12		> 100
C=CCOc1ccc2c(C)cc(=O)oc2c1C		> 100
